Measured values taken from US20120288443A1, “LABELLED PYRROLYL-OXADIAZOLYL-DIAZABICYCLONONANE DERIVATIVES AND THEIR USE IN DIAGNOSTIC METHODS” (N[…]/S, priority 2009, published 2012).

Columns and labels:
[1] = biological target: T1, nicotinic α7 acetylcholine receptor (Sus scrofa, UniProt F1SNR6); assay: Receptor occupancy by PET (occupancy plotting of logan plot VT) after pre-treatment with cold ligand; type: in vivo, Danish Landrace pigs; set-up: nicotinic α7 acetylcholine receptor in the pig brain; from tissue; host or cells: brain of living Danish Landrace pigs (in vivo PET); conditions: for occupancy of nicotinic α7 acetylcholine receptors: pre-treatment 10 mg/kg iv Compound 1 (cold ligand)
Experimental: (§1) Compound 1 was given as an intravenous bolus injection to a total of five Danish Landrace pigs, and the pigs were subsequently scanned for 90 minutes in a high resolution research tomography (HRRT) PET scanner. Hereafter, the pigs were re-scanned after pre-treatment with cold ligand, either Compound 1 (10 mg/kg, iv) or SSR180711 (1 mg/kg or 10 mg/kg, iv).

[2] = biological target: T1, nicotinic α7 acetylcholine receptor; assay: Distribution volumes (VT) of Compound 1 in pig brain by PET, baseline vs pre-treatment; type: in vivo; set-up: nicotinic α7 acetylcholine receptor in the pig brain; from tissue; host or cells: brain of living pigs (in vivo PET); conditions: for change of distribution volume (VT) of Compound 1 tracer following pre-treatment: pig brain, Logan plot kinetic modelling, pre-treatment 10 mg/kg Compound 1 or 1 or 10 mg/kg SSR180711 i.v.
Experimental: The distribution volumes are determined in the pig brain at baseline, or following pre-treatment with either Compound 1 or SSR180711.
Five pigs were PET scanned at baseline with Compound 1 in the HRRT scanner. Subsequently, the pigs were administered either 10 mg/kg Compound 1 or SSR180711 (1 mg/kg or 10 mg/kg, i.v.), and 30 minutes or 4 hours later, the pigs were scanned a second time using the same PET protocol.
VT is a measure of concentrations of Compound 1 in a given region relative to the plasma concentration. VT was calculated by kinetic modelling using Logan plot linearization. All kinetic modelling was done in PMOD version 3.0 (PMOD technologies, Inc.).

[3] = PET scan of brain uptake and distribution after i.v. bolus injection; type: in vivo, Danish Landrace pigs; conditions: pig, 90 minutes HRRT PET scan
Experimental: Five Danish Landrace pigs were PET scanned in a high-resolution research tomography (HRRT) scanner after i.v. bolus injection of Compound 1 at t=0 mins. Points and connecting line indicate regional radioactive concentration normalized to injected dose per kg body weight, i.e. standardized uptake values (SUV).
as §1
Pre-treatment with Compound 1 and SSR180711 lead to a decline in the distribution volumes (VT) of Compound 1 as determined with logan plot kinetic modelling.

T1 sequence (F1SNR6 20-499): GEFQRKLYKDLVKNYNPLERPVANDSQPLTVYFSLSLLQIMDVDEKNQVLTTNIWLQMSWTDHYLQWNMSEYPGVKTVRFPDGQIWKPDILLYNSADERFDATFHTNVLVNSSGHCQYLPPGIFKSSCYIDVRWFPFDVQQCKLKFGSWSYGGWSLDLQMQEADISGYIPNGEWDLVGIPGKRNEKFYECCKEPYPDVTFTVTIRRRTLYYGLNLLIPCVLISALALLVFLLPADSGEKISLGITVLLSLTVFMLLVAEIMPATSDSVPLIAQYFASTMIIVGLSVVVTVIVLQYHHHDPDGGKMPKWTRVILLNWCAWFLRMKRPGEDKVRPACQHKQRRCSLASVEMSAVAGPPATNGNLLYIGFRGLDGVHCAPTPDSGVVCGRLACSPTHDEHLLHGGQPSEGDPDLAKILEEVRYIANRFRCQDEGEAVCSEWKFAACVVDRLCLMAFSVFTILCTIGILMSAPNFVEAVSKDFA

Row | Compound | receptor occupancy at 1 mg/kg ([1]; pig, iv, pre-treatment 1 mg/kg iv SSR180711, tracer Compound 1, read-out: occupancy of nicotinic α7 acetylcholine receptor in the pig brain) [%] | receptor occupancy at 10 mg/kg ([1]; pig, iv, pre-treatment 10 mg/kg iv SSR180711, tracer Compound 1, two values 'respectively', read-out: occupancy of nicotinic α7 acetylcholine receptor in the pig brain) [%] | occupancy of nicotinic α7 acetylcholine receptor in the pig brain ([1]; pre-treatment 10 mg/kg iv SSR180711, tracer Compound 1, two values 'respectively') [%] | change of distribution volume (VT) of Compound 1 tracer following pre-treatment [2] | occupancy of nicotinic α7 acetylcholine receptors ([1]; inter-scan interval 4 hours) [%] | occupancy of nicotinic α7 acetylcholine receptors ([1]; second scan 30 minutes after pre-treatment) [%] | binding to nicotinic α7 acetylcholine receptor in the pig brain ([2]; concluded from VT decrease after pre-treatment) | brain entry and regional distribution [3]
1 | O=C(Oc1ccc(Br)cc1)N1CCN2CCC1CC2 [SSR180711, 1,4-Diazabicyclo[3.2.2]nonane-4-carboxylic acid, 4-bromophenyl ester] | 52 | 70 | 59 | decreased | – | – | – | –
2 | 2-(1,4-Diazabicyclo[3.2.2]nonan-4-yl)-5-(1-[^11C]methylpyrrol-2-yl)-1,3,4-oxadiazole [Compound 1] | – | – | – | decreased | 43 | 81 | binds specifically and selectively | entered into the pig brain, and the distribution was mainly found in the cerebral cortex and the thalamus
